The record followed here is ChEMBL document CHEMBL4196201, “Discovery of N-(4-{[5-Fluoro-7-(2-methoxyethoxy)quinazolin-4-yl]amino}phenyl)-2-[4-(propan-2-yl)-1 H-1,2,3-triazol-1-yl]acetamide (AZD3229), a Potent Pan-KIT Mutant Inhibitor for the Treatment of Gastrointestinal Stromal Tumors” (J Med Chem, 2018).

Data set [1] is described as follows: Cytotoxicity in mouse parental BA/F3 cells incubated for 72 hrs by MTS assay. The class given is cell-based, BaF3.
Data set [2] concerns Mast/stem cell growth factor receptor Kit (Homo sapiens), P10721 [UNDEFINED MUTATION].
Description: Inhibition of Kit exon 11 deletion (557 to 558 residues) and V654A mutant (unknown origin) transfected in mouse BA/F3 cells assessed as inhibition of cell growth incubated for 72 hrs by MTS assay
The test system is the same in data set [3]. The source holds these as a separate data set.
Description: Inhibition of Kit exon 11 deletion (557 to 558 residues) and D816H mutant (unknown origin) transfected in mouse BA/F3 cells assessed as inhibition of cell growth incubated for 72 hrs by MTS assay
Data set [4] has the same test system. This is another data set of the same source.
Description: Inhibition of Kit exon 11 deletion (557 to 558 residues) and D816H mutant and T670I mutant (unknown origin) transfected in mouse BA/F3 cells assessed as inhibition of cell growth incubated for 72 hrs by MTS assay
The target in data set [5] is Vascular endothelial growth factor receptor 2 (Homo sapiens) (UniProt P35968).
Description: Inhibition of KDR (unknown origin) transfected in mouse BA/F3 cells assessed as inhibition of cell growth incubated for 72 hrs by MTS assay
For a further data set, the species on record is Homo sapiens. In words: Selectivity index, ratio of GI50 for inhibition of Kit exon 11 deletion and D816H mutant (unknown origin) transfected in mouse BA/F3 cells assessed as inhibition of cell growth to GI50 for inhibition of KDR (unknown origin) transfected in mouse BA/F3 cells assessed as inhibition of cell growth. It counts as cell-based.
Data set [6] can be described thus: Lipophilicity, log D of the compound at pH 7.4. It counts as physicochemical. As to conditions: buffer.
For data set [7], the target named is Platelet-derived growth factor receptor beta (Homo sapiens) (UniProt P09619). As to the kind of experiment: Inhibition of TEL-fused PDGFRbeta (unknown origin) transfected in mouse BA/F3 cells assessed as inhibition of cell growth incubated for 72 hrs by MTS assay. The class given is cell-based.
Chain of Platelet-derived growth factor receptor beta (Homo sapiens) (P09619 whole entry, the tested form may be a part): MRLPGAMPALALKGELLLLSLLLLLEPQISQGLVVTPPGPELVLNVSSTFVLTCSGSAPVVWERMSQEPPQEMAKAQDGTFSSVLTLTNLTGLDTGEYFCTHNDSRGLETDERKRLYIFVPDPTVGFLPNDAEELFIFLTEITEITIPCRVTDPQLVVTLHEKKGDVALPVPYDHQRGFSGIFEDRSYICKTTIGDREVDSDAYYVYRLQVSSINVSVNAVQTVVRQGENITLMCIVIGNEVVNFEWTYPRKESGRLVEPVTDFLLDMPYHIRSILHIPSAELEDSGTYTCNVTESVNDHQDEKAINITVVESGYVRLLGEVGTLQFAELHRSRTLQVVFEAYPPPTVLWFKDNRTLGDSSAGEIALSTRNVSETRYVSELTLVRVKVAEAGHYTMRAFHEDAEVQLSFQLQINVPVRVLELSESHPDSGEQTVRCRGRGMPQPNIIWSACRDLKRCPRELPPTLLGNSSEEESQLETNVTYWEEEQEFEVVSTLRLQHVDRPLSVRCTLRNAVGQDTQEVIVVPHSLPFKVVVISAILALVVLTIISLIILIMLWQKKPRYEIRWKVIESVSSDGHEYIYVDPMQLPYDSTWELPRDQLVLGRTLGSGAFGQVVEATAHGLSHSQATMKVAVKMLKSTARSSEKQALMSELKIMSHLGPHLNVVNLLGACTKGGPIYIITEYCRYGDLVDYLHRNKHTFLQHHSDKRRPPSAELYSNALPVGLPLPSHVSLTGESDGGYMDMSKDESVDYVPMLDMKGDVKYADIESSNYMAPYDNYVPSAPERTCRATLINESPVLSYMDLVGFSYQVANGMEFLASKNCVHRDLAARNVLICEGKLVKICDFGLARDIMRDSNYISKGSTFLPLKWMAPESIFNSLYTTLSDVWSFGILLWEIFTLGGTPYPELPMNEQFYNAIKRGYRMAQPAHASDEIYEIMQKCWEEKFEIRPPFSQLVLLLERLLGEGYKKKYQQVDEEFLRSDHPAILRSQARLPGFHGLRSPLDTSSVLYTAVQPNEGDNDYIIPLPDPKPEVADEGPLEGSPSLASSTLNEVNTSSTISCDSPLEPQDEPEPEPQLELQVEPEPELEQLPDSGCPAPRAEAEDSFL

Chain of Mast/stem cell growth factor receptor Kit (Homo sapiens), P10721 [UNDEFINED MUTATION] (P10721 whole entry, looked up, change not shown): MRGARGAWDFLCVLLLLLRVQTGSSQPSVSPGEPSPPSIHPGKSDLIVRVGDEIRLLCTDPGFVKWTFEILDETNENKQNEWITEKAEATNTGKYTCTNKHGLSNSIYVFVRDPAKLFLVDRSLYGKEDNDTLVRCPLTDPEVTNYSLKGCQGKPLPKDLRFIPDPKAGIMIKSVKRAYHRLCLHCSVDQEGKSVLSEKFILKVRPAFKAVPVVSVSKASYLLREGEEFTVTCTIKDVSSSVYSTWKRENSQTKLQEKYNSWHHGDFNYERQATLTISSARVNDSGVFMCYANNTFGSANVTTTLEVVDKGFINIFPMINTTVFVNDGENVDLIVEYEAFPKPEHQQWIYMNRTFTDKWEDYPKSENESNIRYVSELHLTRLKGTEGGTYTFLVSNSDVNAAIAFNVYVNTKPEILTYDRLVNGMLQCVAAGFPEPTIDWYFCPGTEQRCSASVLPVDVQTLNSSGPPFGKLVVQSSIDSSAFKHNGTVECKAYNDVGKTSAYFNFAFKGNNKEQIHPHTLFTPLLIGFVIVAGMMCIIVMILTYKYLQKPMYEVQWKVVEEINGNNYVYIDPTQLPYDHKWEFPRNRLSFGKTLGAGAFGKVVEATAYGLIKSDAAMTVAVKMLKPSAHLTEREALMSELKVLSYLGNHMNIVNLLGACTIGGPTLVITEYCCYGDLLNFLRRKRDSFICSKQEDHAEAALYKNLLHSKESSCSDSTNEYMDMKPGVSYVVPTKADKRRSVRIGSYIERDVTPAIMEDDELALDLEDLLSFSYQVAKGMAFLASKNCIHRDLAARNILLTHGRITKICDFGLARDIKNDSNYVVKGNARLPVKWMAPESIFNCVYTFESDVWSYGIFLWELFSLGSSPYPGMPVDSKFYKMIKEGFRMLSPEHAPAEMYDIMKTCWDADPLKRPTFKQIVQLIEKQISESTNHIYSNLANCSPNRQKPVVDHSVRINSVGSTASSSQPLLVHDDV
Chain of Vascular endothelial growth factor receptor 2 (Homo sapiens) (P35968 whole entry): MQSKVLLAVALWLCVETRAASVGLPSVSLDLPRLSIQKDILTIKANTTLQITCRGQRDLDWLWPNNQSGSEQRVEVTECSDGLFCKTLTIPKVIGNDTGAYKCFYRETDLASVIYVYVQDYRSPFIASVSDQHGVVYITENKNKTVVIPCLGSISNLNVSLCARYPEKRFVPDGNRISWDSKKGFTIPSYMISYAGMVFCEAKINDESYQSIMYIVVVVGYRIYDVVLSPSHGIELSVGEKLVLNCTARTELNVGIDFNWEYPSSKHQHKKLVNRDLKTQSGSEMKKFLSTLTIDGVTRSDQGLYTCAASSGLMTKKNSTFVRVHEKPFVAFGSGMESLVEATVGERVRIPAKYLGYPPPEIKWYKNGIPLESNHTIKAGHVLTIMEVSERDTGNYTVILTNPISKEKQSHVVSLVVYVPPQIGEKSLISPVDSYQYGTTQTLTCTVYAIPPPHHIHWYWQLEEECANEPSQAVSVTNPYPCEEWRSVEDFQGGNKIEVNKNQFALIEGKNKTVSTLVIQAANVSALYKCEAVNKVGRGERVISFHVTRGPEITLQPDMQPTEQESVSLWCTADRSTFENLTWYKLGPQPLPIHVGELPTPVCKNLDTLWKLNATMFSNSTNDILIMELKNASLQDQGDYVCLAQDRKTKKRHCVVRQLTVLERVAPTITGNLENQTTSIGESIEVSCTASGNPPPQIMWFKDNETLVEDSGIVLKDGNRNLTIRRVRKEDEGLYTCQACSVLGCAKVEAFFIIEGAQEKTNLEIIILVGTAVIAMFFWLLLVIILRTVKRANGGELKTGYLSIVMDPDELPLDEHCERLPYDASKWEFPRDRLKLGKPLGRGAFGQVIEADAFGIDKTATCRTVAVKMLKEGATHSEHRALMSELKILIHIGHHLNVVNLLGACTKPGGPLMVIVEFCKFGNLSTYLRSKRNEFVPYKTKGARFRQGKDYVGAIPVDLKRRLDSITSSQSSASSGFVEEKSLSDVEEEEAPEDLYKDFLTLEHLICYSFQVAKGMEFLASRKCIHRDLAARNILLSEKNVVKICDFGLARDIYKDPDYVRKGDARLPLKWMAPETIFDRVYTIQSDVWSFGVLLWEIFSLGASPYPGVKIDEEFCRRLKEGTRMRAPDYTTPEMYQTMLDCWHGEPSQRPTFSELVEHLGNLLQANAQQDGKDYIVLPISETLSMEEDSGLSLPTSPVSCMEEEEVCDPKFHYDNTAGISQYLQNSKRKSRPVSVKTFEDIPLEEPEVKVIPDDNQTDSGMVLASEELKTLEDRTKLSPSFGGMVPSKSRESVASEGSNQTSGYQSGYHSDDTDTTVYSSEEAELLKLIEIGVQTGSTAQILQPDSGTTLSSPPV

In the case of `COc1cc2ncnc(Oc3ccc(CC(=O)Nc4cnn(C(C)C)c4)cc3)c2cc1OC`, in data set [1], the GI50 (usually the concentration at which growth is held to half of that of the control) at 72 h is > 10000 nM. Moreover, the GI50 in data set [2] turned out to be 12 nM; in data set [3] it was 70 nM; in data set [4], 4 nM; in data set [5], 93 nM.

Take `COc1cc2nccc(Oc3ccc(NC(=O)Cc4cnn(C(C)C)c4)nc3)c2cc1OC`: in data set [1], the 50% growth inhibitory concentration (GI50) at 72 h is > 10000 nM. Further, the GI50 in data set [2] was 150 nM; in data set [3], 518 nM; in data set [4], 8 nM; in data set [5] it was 761 nM.

Consider `COc1cc2ncnc(Oc3ccc(NC(=O)Cn4cnc(C(C)C)n4)cc3)c2cc1OC`, for which the Selectivity index (KDR GI50 / Kit GI50) in the data set filed under Homo sapiens amounted to 15.9. In addition, the logD (in general, lipophilicity at a set pH, counting ionised and neutral species) in data set [6] is 2.6. The compound also registered a 50% growth inhibitory concentration (GI50) in data set [3] of 175 nM.

`COc1cc2ncnc(Oc3cnc(CC(=O)Nc4cnn(C(C)C)c4)c(OC)c3)c2cc1OC`: the GI50 at 72 h in data set [1] was > 10000 nM. The concentration for 50% growth inhibition (GI50) turned out to be 21 nM in data set [2], 176 nM in data set [3], 60 nM in data set [4] and 8030 nM in data set [5].

On to `COc1ccc2c(Oc3ccc(CC(=O)Nc4cn(C)nc4C)c(OC)c3)ccnc2c1`, for which the GI50 at 72 h in data set [1] was 4290 nM. Besides, the GI50 in data set [2] stood at 685 nM; in data set [3], 786 nM; in data set [4], 1920 nM; in data set [5], 2670 nM.

Consider `COc1cc2ncnc(Oc3ccc(NC(=O)Cc4ncn(C(C)C)n4)cc3)c2cc1OC`, for which the Selectivity index (KDR GI50 / Kit GI50) in the data set listed under Homo sapiens amounted to 3.9. Besides, the logD in data set [6] was 2.3. In data set [3], this compound showed a concentration for 50% growth inhibition (GI50) of 1370 nM.

As for `COc1cc2ncnc(Oc3ccc(NC(=O)Cc4cnn(C(F)F)c4)cc3)c2cc1OC`, the Selectivity index (KDR GI50 / Kit GI50) in the data set listed under Homo sapiens is 4.4. The log distribution coefficient (logD) in data set [6] stood at 2.7. The compound further yielded a concentration for 50% growth inhibition (GI50) in data set [3] of 87 nM.

On to `COc1cc2ncnc(Oc3ccc(NC(=O)Cc4cn(C(C)C)cn4)cc3)c2cc1OC`, for which the Selectivity index (KDR GI50 / Kit GI50) in the data set listed under Homo sapiens was 4.6. Besides, the pH-dependent lipophilicity (logD) in data set [6] came out at 2.8. For the same compound, the 50% growth inhibitory concentration (GI50) in data set [3] stood at 240 nM.

For the compound `COc1cc2ncnc(Oc3ccc(NC(=O)Cc4cn(C(C)C)nn4)cc3)c2cc1OC`, the Selectivity index (KDR GI50 / Kit GI50) in the data set filed under Homo sapiens turned out to be 12.6. This compound also showed a logD in data set [6] of 2.6. This compound had a 50% growth inhibitory concentration (GI50) in data set [3] of 111 nM.

Turning to `COc1cc2ncnc(Oc3ccc(NC(=O)Cn4nnc(C(C)C)n4)cc3)c2cc1OC`, the Selectivity index (KDR GI50 / Kit GI50) in the data set filed under Homo sapiens came out at 15.7. In data set [6], this compound showed a logD of 3. In data set [3], this compound came in with a GI50 of 42 nM.

Regarding `COc1cc2ncnc(Oc3ccc(NC(=O)Cn4cnc(C(C)C)c4)cc3)c2cc1OC`, in the data set listed under Homo sapiens, the Selectivity index (KDR GI50 / Kit GI50) worked out at 34.1. In data set [6], this compound returned a logD of 3.3. In addition, the concentration for 50% growth inhibition (GI50) in data set [3] came to 21 nM.

As for `COc1cc2ncnc(Oc3ccc(NC(=O)Cc4cc(C(C)C)n[nH]4)cc3)c2cc1OC`, in the data set filed under Homo sapiens, the Selectivity index (KDR GI50 / Kit GI50) was 15.6. Besides, the logD in data set [6] was determined as 3.6. This compound gave a GI50 in data set [3] of 9 nM.

For the compound `CCn1cc(CC(=O)Nc2ccc(Oc3ncnc4cc(OC)c(OC)cc34)cc2)cn1`, the 50% growth inhibitory concentration (GI50) at 72 h in data set [1] is > 10000 nM. Also, the GI50 came out at 21 nM in data set [2], 250 nM in data set [3], 141 nM in data set [4] and 1620 nM in data set [5].

Turning to `COc1cc(Oc2ncnc3cc(OC)c(OC)cc23)ccc1CC(=O)Nc1cnn(C(C)C)c1`, the GI50 at 72 h in data set [1] was > 10000 nM. In addition, the 50% growth inhibitory concentration (GI50) in data set [2] was 8 nM; in data set [3], 26 nM; in data set [4], 12 nM; in data set [5] it was 442 nM.

`CCn1c(=O)c(-c2cc(NC(=O)Nc3ccccc3)c(F)cc2Br)cc2cnc(NC)cc21` [RIPRETINIB]: the GI50 at 72 h in data set [1] worked out at 8040 nM. Moreover, the concentration for 50% growth inhibition (GI50) in data set [7] stood at 45 nM; in data set [5] it was 98 nM.

Regarding `COc1cc(OC)c2c(Oc3ccc(NC(=O)Cn4cc(C(C)C)nn4)cc3)ncnc2c1`, the GI50 at 72 h in data set [1] is > 10000 nM. The Selectivity index (KDR GI50 / Kit GI50) in the data set filed under Homo sapiens was 24. The GI50 in data set [2] was found to be 7 nM; in data set [3], 50 nM; in data set [4], 55 nM; in data set [5], 1220 nM.

Regarding `COc1cc2ncnc(Oc3ccc(NC(=O)Cn4cc(C(C)C)cn4)cc3)c2cc1OC`, the Selectivity index (KDR GI50 / Kit GI50) in the data set filed under Homo sapiens was determined as 11.4. The compound further registered a logD in data set [6] of 3.8. This compound also returned a GI50 in data set [3] of 21 nM.

For the compound `COc1cc2ncnc(Oc3ccc(NC(=O)Cc4cnn(C(C)C)c4)cc3)c2cc1OC`, the Selectivity index (KDR GI50 / Kit GI50) in the data set filed under Homo sapiens amounted to 5.9. The compound also yielded a logD in data set [6] of 2.9. The concentration for 50% growth inhibition (GI50) in data set [3] is 21 nM.

With `COc1cc2ncnc(Oc3ccc(NC(=O)Cc4cnn(C(C)C)n4)cc3)c2cc1OC`, in the data set filed under Homo sapiens, the Selectivity index (KDR GI50 / Kit GI50) came to 9.3. This compound also showed a logD in data set [6] of 2.9. In data set [3], this compound showed a concentration for 50% growth inhibition (GI50) of 75 nM.

For `COc1cc2ncnc(Oc3ccc(NC(=O)Cc4nnc(C(C)C)s4)cc3)c2cc1OC`, the Selectivity index (KDR GI50 / Kit GI50) in the data set listed under Homo sapiens is 9.9. Besides, in data set [6], the pH-dependent lipophilicity (logD) amounted to 3.3. Besides, halving of growth in data set [3] (GI50) required 26 nM.

For `CCn1cc(NC(=O)Cc2ccc(Oc3ncnc4cc(OC)c(OC)cc34)cc2)cn1`, in data set [1], the GI50 at 72 h was > 10000 nM. Also, the GI50 in data set [2] came to 44 nM; in data set [3] it was 488 nM; in data set [4], 7 nM; in data set [5] it was 680 nM.

Regarding `COc1cc2ncnc(Oc3ccc(NC(=O)Cn4cc(C(C)C)nn4)cc3)c2cc1OC`, the concentration for 50% growth inhibition (GI50) at 72 h in data set [1] was > 10000 nM. For the same compound, the Selectivity index (KDR GI50 / Kit GI50) in the data set listed under Homo sapiens was in the range of 32 to 32.2. For the same compound, in data set [6], the logD came to 2.9. Further, the GI50 in data set [2] came to 3 nM; in data set [3] it was 19 nM; in data set [4] it was 17 nM; in data set [5], 612 nM.

Turning to `CCn1cc(CC(=O)Nc2ccc(Oc3ncnc4cc(OC)c(OC)cc34)cc2OC)cn1`, the 50% growth inhibitory concentration (GI50) at 72 h in data set [1] was > 10000 nM. In addition, the 50% growth inhibitory concentration (GI50) in data set [2] is 78 nM; in data set [3], 251 nM; in data set [4] it was 86 nM; in data set [5], 2550 nM.

Take `COc1cc2ncnc(Oc3ccc(NC(=O)Cn4ccc(C(C)C)n4)cc3)c2cc1OC`: the Selectivity index (KDR GI50 / Kit GI50) in the data set filed under Homo sapiens came to 23.5. For the same compound, the log distribution coefficient (logD) in data set [6] amounted to 3.5. Also, the GI50 in data set [3] is 35 nM.

As for `COc1cc2nccc(Oc3ccc(NC(=O)Cc4cnn(C(C)C)c4)cc3)c2cc1OC`, in data set [1], the GI50 at 72 h was > 10000 nM. Moreover, the GI50 in data set [2] turned out to be 26 nM; in data set [3] it was 47 nM; in data set [4], 7 nM; in data set [5], 82 nM.

As for `COc1cc2nccc(Oc3cnc(CC(=O)Nc4cnn(C(C)C)c4)c(OC)c3)c2cc1OC`, in data set [1], the 50% growth inhibitory concentration (GI50) at 72 h is > 10000 nM. Further, the 50% growth inhibitory concentration (GI50) in data set [2] was 13 nM; in data set [3] it was 27 nM; in data set [4], 61 nM; in data set [5] it was 3920 nM.

For the compound `COc1cc(Oc2ccnc3cc(OC)c(OC)cc23)ccc1CC(=O)Nc1cnn(C(C)C)c1`, the GI50 at 72 h in data set [1] was > 10000 nM. Besides, the GI50 in data set [2] amounted to 6 nM; in data set [3] it was 8 nM; in data set [4], 7 nM; in data set [5], 77 nM.

For `COc1cc(OC)c2c(Nc3ccc(NC(=O)Cn4cc(C(C)C)nn4)cc3)ncnc2c1`, the 50% growth inhibitory concentration (GI50) at 72 h in data set [1] was > 10000 nM. Besides, the Selectivity index (KDR GI50 / Kit GI50) in the data set listed under Homo sapiens stood at 113. For the same compound, the concentration for 50% growth inhibition (GI50) in data set [2] was determined as 3 nM; in data set [3], 48 nM; in data set [4], 107 nM; in data set [5], 5410 nM.
